Test: RP, Waters ACQUITY Premier BEH C18, 100 × 2.1 mm, 1.7 µm, 40 °C, 0.3 to 0.4 mL/min, estimated dead time 0.73 min; A: water + 0.1% formic acid; B: acetonitrile + 0.1% formic acid; gradient (min/%B) 0/0.5 0.1/0.5 10/80 10.1/99.5 12/0.5 12.1/0.5 14.5/0.5
Details: stereoisomer not certain

Row | Structure (SMILES) | LC retention time [min]
1 | CCCCCCC(N)C(=O)O (racemic) [DL-2-AMINOOCTANOIC ACID] | 4.04
2 | CC(=O)OC1CC2CCC1(C)C2(C)C (single isomer, unassigned; (-)) [(-)-BORNYL ACETATE] | 7.47
3 | O=C(OC1Cc2c(O)cc(O)cc2OC1c1cc(O)c(O)c(O)c1)c1cc(O)c(O)c(O)c1 (single isomer, unassigned; (-)) [(-)-EPIGALLOCATECHIN-3-GALLATE] | 3.98
4 | O=C(O)CC(CC(=O)O)C(=O)O [1,2,3-PROPANETRICARBOXYLIC ACID] | 2.39
5 | Cn1c(=O)c2c([nH]c(=O)n2C)n(C)c1=O [1,3,7-TRIMETHYLURIC ACID] | 3.23
6 | Cn1c(=O)[nH]c2[nH]c(=O)n(C)c2c1=O [1,7-DIMETHYLURIC ACID] | 2.39
7 | O=C(O)CCCCCCCCCCCC(=O)O [1,11-UNDECANEDICARBOXYLATE] | 7.11
8 | C[C@H](O)[C@@H](O)[C@H](O)[C@H](O)CO [1-DEOXY-D-GLUCITOL] | 0.959
9 | Cn1c(=O)[nH]c2[nH]c(=O)[nH]c2c1=O [1-METHYLURIC ACID] | 1.21
10 | Cn1c(=O)[nH]c2nc[nH]c2c1=O [1-METHYLXANTHINE] | 1.42
11 | O=C(O)c1c(O)cc(O)cc1O [2,4,6-TRIHYDROXYBENZOIC ACID] | 3.9
12 | O=[N+]([O-])c1ccc(O)cc1O [2,4-DIHYDROXY-NITROPHENOL] | 6.02
13 | O=C(O)C(O)CCO (stereo not drawn) [2,4-DIHYDROXYBUTANOIC ACID] | 1.07
14 | O=c1[nH]c(=O)c2nccnc2[nH]1 [2,4-DIHYDROXYPTERIDINE] | 3.08
15 | CCCCCC(N)C(=O)O (stereo not drawn) [2-AMINOHEPTANOATE] | 2.81
16 | CC(C)(N)C(=O)O [2-AMINOISOBUTYRATE] | 0.886
17 | CCC(CO)C(=O)O (stereo not drawn) [2-ETHYLHYDRACRYLIC ACID] | 3.81
18 | CSCCC(O)C(=O)O (stereo not drawn) [2-HYDROXY-4-(METHYLTHIO)BUTANOATE] | 4.06
19 | CCC(O)C(=O)O (stereo not drawn) [2-HYDROXYBUTYRATE] | 2.82
20 | CCCCCCCCCCCCCCC(O)C(=O)O (stereo not drawn) [2-HYDROXYHEXADECANOIC ACID] | 8.98
21 | CCCCCCCCCCCCC(O)C(=O)O (stereo not drawn) [2-HYDROXYMYRISTIC ACID] | 8.3
22 | CCCCC(=O)C(=O)O [2-KETOHEXANOIC ACID] | 4.8

Row | Structure (SMILES) | LC retention time [min]
23 | COc1cc2c(cc1O)CCC1C2CCC2(C)C(=O)CCC12 (stereo not drawn) [2-METHOXYESTRONE] | 7.38
24 | CC(C(=O)O)C(O)(CC(=O)O)C(=O)O (stereo not drawn) [2-METHYLCITRATE] | 3.44
25 | CC(CCC(=O)O)C(=O)O (stereo not drawn) [2-METHYLGLUTARATE] | 4.07
26 | CC(=CC(=O)O)C(=O)O [2-METHYLMALEATE] | 3.29
27 | CSCCC(=O)C(=O)O [2-OXO-4-METHYLTHIOBUTANOIC ACID] | 3.7
28 | COc1cc(C=CC(=O)O)cc(OC)c1OC [3,4,5-TRIMETHOXYCINNAMIC ACID] | 5.7
29 | O=Cc1ccc(O)c(O)c1 [3,4-DIHYDROXYBENZALDEHYDE] | 3.49
30 | O=C(O)c1cc(O)cc(O)c1 [3,5-DIHYDROXYBENZOIC ACID] | 2.21
31 | N[C@@H](Cc1cc(I)c(O)c(I)c1)C(=O)O [3,5-DIIODO-L-TYROSINE] | 4.59
32 | Cn1c(=O)[nH]c(=O)c2c1[nH]c(=O)n2C [3,7-DIMETHYLURIC ACID] | 1.28
33 | O=C([O-])C(O)Cc1ccc(O)c(O)c1.[Na+] (stereo not drawn) [3-(3,4-DIHYDROXYPHENYL)LACTIC ACID] | 3.74
34 | Nc1cc(O)cc(C(=O)O)c1 [3-AMINO-5-HYDROXYBENZOATE] | 1.49
35 | CCCc1oc(CCC(=O)O)c(C(=O)O)c1C [3-CARBOXY-4-METHYL-5-PROPYL-2-FURANPROPIONIC ACID] | 6.56
36 | O=Cc1cccc(O)c1 [3-HYDROXYBENZALDEHYDE] | 5.11
37 | CC(O)CC(=O)O (stereo not drawn) [3-HYDROXYBUTANOATE] | 4.45
38 | CCCCCCCCCC(O)CC(=O)O (stereo not drawn) [3-HYDROXYDODECANOIC ACID] | 7.65
39 | CCCCCCCCCCCCCC(O)CC(=O)O (stereo not drawn) [3-HYDROXYHEXADECANOIC ACID] | 8.7
40 | CCCCCCCCCCCC(O)CC(=O)O (stereo not drawn) [3-HYDROXYTETRADECANOIC ACID] | 8.11
41 | COc1cc(CCN)ccc1O [3-METHOXYTYRAMINE] | 3.47
42 | CCC(C)C(=O)C(=O)O (stereo not drawn) [3-METHYL-2-OXOVALERATE] | 4.42
43 | Cn1cnc(=N)c2[nH]cnc21 [3-METHYLADENINE] | 0.904
44 | CS(=O)CCCN=C=S (stereo not drawn) [3-METHYLSULFINYLPROPYL ISOTHIOCYANATE] | 4.1

Results, then the compound that gave them:

Row | LC retention time [min] | Structure (SMILES)
45 | 4.43 | OCC1OC(Oc2c[nH]c3ccccc23)C(O)C(O)C1O (stereo not drawn)
46 | 6.12 | COc1cc(CC2COC(=O)C2Cc2ccc(O)c(OC)c2)ccc1O (single isomer, unassigned; (-)) [(-)-MATAIRESINOL]
47 | 5.06 | O=C1Cc2ccccc2N1 [1,3-DIHYDRO-(2H)-INDOL-2-ONE]
48 | 7.32 | O=C(O)c1ccc2ccccc2c1O [1-HYDROXY-2-NAPHTHOATE]
49 | 2.05 | Cn1cnc2c(ncn2C2OC(CO)C(O)C2O)c1=N (stereo not drawn) [1-METHYLADENOSINE]
50 | 4.71 | O=C(O)c1cccc(O)c1O [2,3-DIHYDROXYBENZOATE]
51 | 4 | O=C(O)c1ccc(O)cc1O [2,4-DIHYDROXYBENZOIC ACID]
52 | 4.5 | O=C(O)c1c(O)cccc1O [2,6-DIHYDROXYBENZOIC ACID]
53 | 4.71 | COc1cccc(OC)c1C(=O)O [2,6-DIMETHOXYBENZOIC ACID]
54 | 1.62 | Nc1ccccc1O [2-AMINOPHENOL]
55 | 5.38 | Cc1ccccc1C(=O)O [2-METHYLBENZOIC ACID]
56 | 4.24 | O=C(O)c1ccc2ccccc2n1 [2-QUINOLINECARBOXYLATE]
57 | 1.62 | O=C(O)C(O)c1ccc(O)c(O)c1 (stereo not drawn) [3,4 DIHYDROXYMANDELATE]
58 | 4.42 | O=C(O)CCc1ccc(O)c(O)c1 [3,4-DIHYDROXYHYDROCINNAMIC ACID]
59 | 1.86 | OCC(O)c1ccc(O)c(O)c1 (stereo not drawn) [3,4-DIHYDROXYPHENYLGLYCOL]
60 | 5.64 | N[C@@H](Cc1cc(I)c(Oc2ccc(O)cc2)c(I)c1)C(=O)O [3,5-DIIODO-L-THYRONINE]
61 | 5.47 | O=C(O)CCc1ccccc1O [3-(2-HYDROXYPHENYL)PROPANOATE]
62 | 1.37 | Nc1cc(C(=O)O)ccc1O [3-AMINO-4-HYDROXYBENZOATE]
63 | 3.85 | Nc1c(O)cccc1C(=O)O [3-HYDROXYANTHRANILATE]
64 | 4.72 | O=C(O)c1cccc(O)c1 [3-HYDROXYBENZOATE]
65 | 3.03 | O=C(O)CNC(=O)c1cccc(O)c1 [3-HYDROXYHIPPURIC ACID]
66 | 3.54 | O=C(O)Cc1cccc(O)c1 [3-HYDROXYPHENYLACETATE]
67 | 6.25 | O=C(O)CCCc1c[nH]c2ccccc12 [3-INDOLEBUTYRIC ACID]
68 | 5.75 | CC1C(=O)Nc2ccccc21 (stereo not drawn) [3-METHYL-2-OXINDOLE]

From the RepoRT retention time repository
